The values below come from patent US20250230193A1, “CYCLIC COMPOUND HAVING SELECTIVE KRAS INHIBITORY EFFECT ON HRAS AND NRAS” (CHUGAI SEIYAKU KABUSHIKI KAISHA, priority 2022, published 2025).

*1 amine or outer side, *2 acyl side, *3 side chain or, on linkers, in order; H or OH if unused. Where a SMILES comes first, the peptide text is derived from it. Bridges are numbered along the chain shown (N, C = ends). [ ]: non-standard residue; d: D form. hPhe(3-Cl-4-CF3) = N[C@@H](CCc1ccc(C(F)(F)F)c(Cl)c1)C(=O)O; NPrPhe(4-CF3) = CCCN[C@@H](Cc1ccc(C(F)(F)F)cc1)C(=O)O; NEtAsp = CCN([C@@H](CC(=O)[*:3])C(=O)[*:2])[*:1]; NMeGly(cPent) = CN[C@H](C(=O)O)C1CCCC1; NMeL = CN[C@@H](CC(C)C)C(=O)O; NMeA = CN[C@@H](C)C(=O)O; Aze = O=C(O)[C@@H]1CCN1; Ac4c = NC1(C(=O)O)CCC1; Sar = CNCC(=O)O

Assay [1] has as its target GDP-bound NRAS wild-type protein (Homo sapiens, UniProt P01111). The assay is described as follows: Binding to NRAS by surface plasmon resonance (SPR), Single Cycle Kinetics. The settings on record: for NRAS/KRAS (ratio of KD value with respect to NRAS to KD value with respect to KRAS) / NRAS/KRAS (ratio of KD value for NRAS to KD value for KRAS): GDP-bound NRAS wild-type vs GDP-bound KRAS wild-type. On the technique in general: Surface plasmon resonance follows binding to a sensor surface in real time, without labels.

Assay [2] has as its target GDP-bound HRAS wild-type protein (Homo sapiens, UniProt P01112). The assay is described as follows: Binding to HRAS by surface plasmon resonance (SPR), Single Cycle Kinetics. The settings on record: for HRAS/KRAS (ratio of KD value with respect to HRAS to KD value with respect to KRAS) / HRAS/KRAS (ratio of KD value for HRAS to KD value for KRAS): GDP-bound HRAS wild-type vs GDP-bound KRAS wild-type.

The mark [3] stands for this setting: SPR, GDP-bound wild-type proteins.

GDP-bound HRAS wild-type protein, sequence (P01112 whole entry): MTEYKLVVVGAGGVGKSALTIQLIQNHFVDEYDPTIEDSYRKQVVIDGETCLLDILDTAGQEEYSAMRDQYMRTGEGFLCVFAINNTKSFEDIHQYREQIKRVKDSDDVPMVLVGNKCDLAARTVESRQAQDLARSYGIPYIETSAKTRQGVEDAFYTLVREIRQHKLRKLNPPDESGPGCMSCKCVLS
GDP-bound NRAS wild-type protein, sequence (P01111 whole entry): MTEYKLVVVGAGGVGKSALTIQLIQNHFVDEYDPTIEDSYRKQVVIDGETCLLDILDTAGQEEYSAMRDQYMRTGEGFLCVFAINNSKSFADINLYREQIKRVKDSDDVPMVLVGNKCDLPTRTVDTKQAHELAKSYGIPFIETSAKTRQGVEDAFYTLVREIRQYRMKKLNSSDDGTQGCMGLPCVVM

On to `CC[C@H](C)[C@@H]1NC(=O)[C@H](CC(C)C)N(C)C(=O)C[C@@H](C(=O)N2CCOCC2)N(C)C(=O)[C@H](C2CCCC2)N(C)C(=O)C2(CCC2)NC(=O)[C@@H]2[C@H]3C[C@H]3CN2C(=O)[C@H](CCc2cc(F)c(C(F)(F)F)c(F)c2)NC(=O)CN(C)C(=O)[C@H](Cc2ccc(C(F)(F)F)cc2)N2CCCC[C@@H](C2=O)N(C)C(=O)CN(C)C1=O` [PP0810], for which, in assay [1] (KD ratio, SPR), the “NRAS/KRAS (ratio of KD value with respect to NRAS to KD value with respect to KRAS)” value is “B (a compound having 3 or more and less than 10 is denoted as B)”. In addition, the “HRAS/KRAS (ratio of KD value with respect to HRAS to KD value with respect to KRAS)” value in assay [2] (KD ratio, SPR) was “B (a compound having 3 or more and less than 10 is denoted as B)”.
Consider `CC[C@H](C)[C@@H]1NC(=O)[C@@H]2CCCCc3ccc(cc3)C[C@@H](C(=O)N(C)CC(=O)N[C@@H](CCc3ccc(C(F)(F)F)c(OC)c3)C(=O)N3C[C@H](OC(C)C)C[C@H]3C(=O)NC3(CC(C)(C)C3)C(=O)N(C)[C@@H](C3CCCC3)C(=O)N(C)[C@H](C(=O)N(C)CC)CC(=O)N2C)N2CC/C=C\C[C@@H](C2=O)N(C)C(=O)CN(C)C1=O` [PP3078], for which the “NRAS/KRAS (ratio of KD value with respect to GDP-bound NRAS wild-type protein to KD value with respect to KRAS)” value in assay [1] (setting [3]) is “A (a compound having 10 or more and less than 20 is denoted as A)”. The “HRAS/KRAS (ratio of KD value with respect to GDP-bound HRAS wild-type protein to KD value with respect to KRAS)” value in assay [2] (setting [3]) is “B (a compound having 3 or more and less than 10 is denoted as B)”.
Turning to `CCCC[C@H]1C(=O)N[C@@H]([C@@H](C)CC)C(=O)N(C)CC(=O)N(C)[C@H]2C/C=C\CCN(C2=O)[C@@H](Cc2ccc(C(F)(F)F)cc2)C(=O)N(C)CC(=O)N[C@@H](CCc2cc(F)c(C(F)(F)F)c(F)c2)C(=O)N2C[C@H](OCC)C[C@H]2C(=O)NC2(CC(F)(F)C2)C(=O)N(C)[C@@H](C2CCCC2)C(=O)N(C)[C@H](C(=O)N(C)C)CC(=O)N1C` [PP1740], the “NRAS/KRAS (ratio of KD value for NRAS to KD value for KRAS)” value in assay [1] (KD ratio, SPR) is “A (a compound having 10 or more and less than 20 is denoted as A)”. The “HRAS/KRAS (ratio of KD value for HRAS to KD value for KRAS)” value in assay [2] (KD ratio, SPR) is “A (a compound having 10 or more and less than 20 is denoted as A)”.
On to `CCCN1C(=O)[C@@H]2CCN2C(=O)[C@H](C)N(C)C(=O)[C@H]([C@@H](C)CC)NC(=O)[C@H](CC(C)C)N(C)C(=O)C[C@@H](C(=O)N(C)C)N(CC)C(=O)[C@H](C2CCCC2)N(C)C(=O)C2(CCC2)NC(=O)[C@@H]2CCCN2C(=O)[C@H](CCc2ccc(C(F)(F)F)c(Cl)c2)NC(=O)CN(C)C(=O)[C@@H]1Cc1ccc(C(F)(F)F)cc1` [PP1957] ([NMeL]I[NMeA][Aze][NPrPhe(4-CF3)][Sar][hPhe(3-Cl-4-CF3)]P[Ac4c][NMeGly(cPent)][NEtAsp]-NMe2; lactam N-11), for which the “NRAS/KRAS (ratio of KD value for NRAS to KD value for KRAS)” value in assay [1] (KD ratio, SPR) was “C (A compound having a KD ratio of 0.1 or more and less than 3 is denoted as C)”. The “HRAS/KRAS (ratio of KD value for HRAS to KD value for KRAS)” value in assay [2] (KD ratio, SPR) was “B (a compound having 3 or more and less than 10 is denoted as B)”.
Turning to `CCO[C@@H]1C[C@H]2C(=O)NC3(CCC3)C(=O)N(C)[C@@H](C3CCCC3)C(=O)N(CCC3CCCC3)[C@H](C(=O)N3CCOCC3)CC(=O)N(C)[C@@H](CC(C)C)C(=O)N[C@@H]([C@@H](C)CC)C(=O)N(C)CC(=O)N(C)[C@H]3CCCCCN(C3=O)[C@@H](Cc3ccc(C(F)(F)F)cc3)C(=O)N(C)CC(=O)N[C@@H](CCc3cc(F)c(C(F)(F)F)c(F)c3)C(=O)N2C1` [PP0641], in assay [1] (SPR), the “NRAS/KRAS (ratio of KD value with respect to GDP-bound NRAS wild-type protein to KD value with respect to KRAS)” value was “A (a compound having 10 or more and less than 20 is denoted as A)”. Also, the “HRAS/KRAS (ratio of KD value with respect to GDP-bound HRAS wild-type protein to KD value with respect to KRAS)” value in assay [2] (SPR) is “A (a compound having 10 or more and less than 20 is denoted as A)”.
Take `CCC[C@H]1C(=O)N[C@@H]([C@@H](C)CC)C(=O)N2C[C@@H](OC)C[C@H]2C(=O)N(C)[C@H]2C/C=C\CCN(C2=O)[C@@H](Cc2ccc(C)cc2)C(=O)N(C)CC(=O)N[C@@H](CCc2cc(F)c(C(F)(F)F)c(F)c2)C(=O)N2C[C@H](OCC)C[C@H]2C(=O)NC2(CCC2)C(=O)N(C)[C@@H](C2CCCC2)C(=O)N(C)[C@H](C(=O)N(C)C)CC(=O)N1C` [PP2550]: the “NRAS/KRAS (ratio of KD value with respect to GDP-bound NRAS wild-type protein to KD value with respect to KRAS)” value in assay [1] (class symbols) is “A (a compound having 10 or more and less than 20 is denoted as A)”. Besides, in assay [2] (class symbols), the “HRAS/KRAS (ratio of KD value with respect to GDP-bound HRAS wild-type protein to KD value with respect to KRAS)” value is “B (a compound having 3 or more and less than 10 is denoted as B)”.
In the case of `CCOC[C@H]1C(=O)N[C@@H]([C@@H](C)CC)C(=O)N(C)CC(=O)N(C)[C@H]2C/C=C\CCN(C2=O)[C@@H](Cc2ccc(C(F)(F)F)cc2)C(=O)N(C)CC(=O)N[C@@H](CCc2ccc(C(F)(F)F)c(OC)c2)C(=O)N2C[C@H](OCC)C[C@H]2C(=O)N(C)C2(CCC2)C(=O)N(C)[C@@H](C(CC)CC)C(=O)N(C)[C@H](C(=O)N(C)C)CC(=O)N1C` [PP2383], the “NRAS/KRAS (ratio of KD value with respect to NRAS to KD value with respect to KRAS)” value in assay [1] (SPR) is “A (a compound having 10 or more and less than 20 is denoted as A)”. In addition, the “HRAS/KRAS (ratio of KD value with respect to HRAS to KD value with respect to KRAS)” value in assay [2] (SPR) was “A (a compound having 10 or more and less than 20 is denoted as A)”.
